Four compounds from ChEMBL document CHEMBL1147992, “Glaziovianin A, a new isoflavone, from the leaves of Ateleia glazioviana and its cytotoxic activity against human cancer cells” (Bioorg Med Chem Lett, 2007) can be followed below.

In one assay the test system is HL-60. The experiment in a line: Cytotoxicity against human HL60 cells by MTT assay after 72 hrs. It counts as functional, cell-based. Particulars: HL-60, 72 h.
The next assay has as its system LOX IMVI. Description: Cytotoxicity against human LOX-IMVI cells by MTT assay after 72 hrs. The class given is functional. For orientation: Tetrazolium dyes change colour on reduction, which living cells bring about.
Another assay deals with OVCAR-3. Description: Cytotoxicity against human OVCAR-3 cells by MTT assay after 72 hrs. Particulars: OVCAR-3, 72 h. It counts as functional.
A further assay deals with SF-539. Description: Cytotoxicity against human SF539 cells by MTT assay after 72 hrs. The class given is functional. The note with it: SF-539, 72 h.
Another assay concerns OVCAR-5. The experiment in a line: Cytotoxicity against human OVCAR5 cells by MTT assay after 72 hrs. It counts as functional. Particulars: OVCAR-5, 72 h.
The test system of another assay is St-4. Description: Cytotoxicity against human St4 cells by MTT assay after 72 hrs. It counts as functional. Particulars: St-4, 72 h.
A short description of assay [1]: Cell cycle arrest in rat 3Y1 cells by accumulation at M phase at 3 uM after 18 hrs. It counts as functional, cell-based.
For the next assay, the system named is MKN-45. The experiment in a line: Cytotoxicity against human MKN45 cells by MTT assay after 72 hrs. It counts as functional. Particulars: MKN-45, 72 h.
The test system of another assay is NCI-H460. Description: Cytotoxicity against human NCIH460 cells by MTT assay after 72 hrs. Particulars: NCI-H460, 72 h. The class given is functional.
For a further assay, the system named is SF-268. The experiment in a line: Cytotoxicity against human SF268 cells by MTT assay after 72 hrs. The class given is functional. Particulars: SF-268, 72 h.
The subject of a further assay is OVCAR-8. The experiment in a line: Cytotoxicity against human OVCAR8 cells by MTT assay after 72 hrs. It counts as functional. The note with it: OVCAR-8, 72 h.
The subject of another assay is SF-295. The experiment in a line: Cytotoxicity against human SF295 cells by MTT assay after 72 hrs. The class given is functional. The note with it: SF-295, 72 h.
The nature of assay [2]: Cytotoxicity against human […] cells by MTT assay after 72 hrs. It counts as functional.
A further assay has as its system DMS-273. The experiment in a line: Cytotoxicity against human DMS273 cells by MTT assay after 72 hrs. The class given is functional. Particulars: DMS-273, 72 h.
The subject of the next assay is A549. Description: Cytotoxicity against human A549 cells by MTT assay after 72 hrs. It counts as functional. Particulars: A549, 72 h.
The subject of another assay is PC-3. The experiment in a line: Cytotoxicity against human PC3 cells by MTT assay after 72 hrs. The class given is functional. Particulars: PC-3, 72 h.
The next assay has as its system HCT-15. The experiment in a line: Cytotoxicity against human HCT15 cells by MTT assay after 72 hrs. The class given is functional. Particulars: HCT-15, 72 h.
Another assay has as its system MCF7. The experiment in a line: Cytotoxicity against human MCF7 cells by MTT assay after 72 hrs. The class given is functional. Particulars: MCF7, 72 h.
In the next assay the test system is HCT-116. The experiment in a line: Cytotoxicity against human HCT116 cells by MTT assay after 72 hrs. The class given is functional. The note with it: HCT-116, 72 h.
Assay [3] can be described thus: Cytotoxicity against human HBC5 cells by MTT assay after 72 hrs. It counts as functional. The note with it: HBC5, 72 h.
In the next assay the test system is NCI-H23. Description: Cytotoxicity against human NCIH23 cells by MTT assay after 72 hrs. It counts as functional. The note with it: NCI-H23, 72 h.
A further assay deals with SNB-75. Description: Cytotoxicity against human SNB75 cells by MTT assay after 72 hrs. The class given is functional. The note with it: SNB-75, 72 h.
The subject of another assay is OVCAR-4. Description: Cytotoxicity against human OVCAR4 cells by MTT assay after 72 hrs. The class given is functional. The note with it: OVCAR-4, 72 h.
The subject of a further assay is ACHN. The experiment in a line: Cytotoxicity against human ACHN cells by MTT assay after 72 hrs. The class given is functional.
Another assay deals with SK-OV-3. The experiment in a line: Cytotoxicity against human SK-OV3 cells by MTT assay after 72 hrs. It counts as functional. The note with it: SK-OV-3, 72 h.
The subject of a further assay is DU-145. Description: Cytotoxicity against human DU145 cells by MTT assay after 72 hrs. It counts as functional. Particulars: DU-145, 72 h.
Assay [4] in a line: Cytotoxicity against human MKN1 cells by MTT assay after 72 hrs. The class given is functional. The note with it: MKN-1, 72 h.
The next assay deals with SNB-78. The experiment in a line: Cytotoxicity against human SNB78 cells by MTT assay after 72 hrs. The class given is functional. Particulars: SNB-78, 72 h.
The subject of a further assay is MKN-28. The experiment in a line: Cytotoxicity against human MKN28 cells by MTT assay after 72 hrs. The class given is functional. The note with it: MKN-28, 72 h.
The next assay has as its system MDA-MB-231. The experiment in a line: Cytotoxicity against human MDA-MB-231 cells by MTT assay after 72 hrs. It counts as functional. Particulars: MDA-MB-231, 72 h.
Assay [5] is described as follows: Cytotoxicity against human HBC4 cells by MTT assay after 72 hrs. Particulars: HBC4, 72 h. It counts as functional.
The subject of the next assay is U-251. The experiment in a line: Cytotoxicity against human U251 cells by MTT assay after 72 hrs. The note with it: U-251, 72 h. It counts as functional.
Another assay relates to KM12. Description: Cytotoxicity against human KM12 cells by MTT assay after 72 hrs. The class given is functional. Particulars: KM12, 72 h.
For a further assay, the system named is MKN-74. The experiment in a line: Cytotoxicity against human MKN74 cells by MTT assay after 72 hrs. The class given is functional. The note with it: MKN-74, 72 h.
The nature of assay [6]: Cytotoxicity against human BSY1 cells by MTT assay after 72 hrs. It counts as functional. Particulars: BSY-1, 72 h.
In a further assay the test system is MKN-7. Description: Cytotoxicity against human MKN7 cells by MTT assay after 72 hrs. It counts as functional. The note with it: MKN-7, 72 h.
In a further assay the test system is DMS-114. The experiment in a line: Cytotoxicity against human DMS114 cells by MTT assay after 72 hrs. The class given is functional. The note with it: DMS-114, 72 h.
In a further assay the test system is HCC 2998. Description: Cytotoxicity against human HCC2998 cells by MTT assay after 72 hrs. It counts as functional. Particulars: HCC 2998, 72 h.
A short description of assay [7]: Cytotoxicity against human RXF631L cells by MTT assay after 72 hrs. The note with it: RXF 631, 72 h. It counts as functional.
For another assay, the system named is 3Y1. Description: Disruption of microtubules in rat 3Y1 cells at 1 uM after 18 hrs. It counts as functional, cell-based.
For the next assay, the system named is NCI-H522. Description: Cytotoxicity against human NCIH522 cells by MTT assay after 72 hrs. The note with it: NCI-H522, 72 h. It counts as functional.
The next assay relates to HT-29. Description: Cytotoxicity against human HT29 cells by MTT assay after 72 hrs. It counts as functional. The note with it: HT-29, 72 h.

For orientation: IC50 means the midpoint of a concentration-inhibition curve. A word on the GI50: it is the concentration at which growth is held to half of that of the control. Low values mean more potent growth inhibition, high ones less potent growth inhibition.

Activity calls are given as the source filed them. No cut-off for these calls is given here.

For `COc1cc2occ(-c3cc4c(cc3OC)OCO4)c(=O)c2cc1OC`, it took 16000 nM to reach half-maximal inhibition with HL-60 (IC50). In other words, the double-digit micromolar range.

In turn, `COc1cc(OC)c(-c2coc3cc(OC)c(OC)cc3c2=O)cc1OC` had an IC50 in the assay on HL-60 of 8500 nM. This IC50 lies about 1.9-fold lower than the previous one.

`COc1ccc(-c2coc3cc(OC)c(OC)cc3c2=O)cc1OC` had an IC50 in the assay on HL-60 of 23000 nM.

With `COc1cc2occ(-c3cc(OC)c4c(c3OC)OCO4)c(=O)c2cc1OC` [GLAZIOVIANIN A], the GI50 in the assay with LOX IMVI came out at 870 nM; in the assay on OVCAR-3, 130 nM; in the assay with SF-539 it was 320 nM; in the assay with OVCAR-5, 2190 nM; with St-4 it was 15100 nM; with MKN-45 it was 680 nM. In addition, the GI50 was 410 nM in the assay with NCI-H460; 830 nM in the assay on SF-268; 1510 nM in the assay on OVCAR-8; 340 nM in the assay on SF-295; 580 nM in assay [2]; 130 nM with DMS-273. Further, the GI50 turned out to be 830 nM with A549; 100 nM with PC-3; 290 nM with HCT-15; 390 nM with MCF7; 560 nM with HCT-116; 470 nM in assay [3]. The 50% growth inhibitory concentration (GI50) in the assay on NCI-H23 worked out at 5130 nM; in the assay with SNB-75 it was 630 nM; with OVCAR-4, 10500 nM; in the assay with ACHN it was 620 nM; with SK-OV-3, 280 nM; in the assay on DU-145, 590 nM. Also, the GI50 in assay [4] is 690 nM; in the assay on SNB-78 it was 10700 nM; in the assay with MKN-28 it was 450 nM; with MDA-MB-231, 1100 nM; in assay [5], 1950 nM; in the assay with U-251, 790 nM. In addition, the GI50 in the assay with KM12 came to 320 nM; with MKN-74, 390 nM; in [6] it was 50 nM; in the assay on MKN-7, 1510 nM; in the assay with DMS-114, 200 nM; with HCC 2998, 3020 nM. In addition, the concentration for 50% growth inhibition (GI50) in assay [7] was 510 nM; with NCI-H522 it was 230 nM; with HT-29, 460 nM. The result (in assay [1]; with 3Y1) was Active. The compound also had an IC50 in the assay on HL-60 of 290 nM.
